The nature of data set [1]: Hepatic intrinsic clearance following incubation in human liver microsomes. It counts as in vitro ADME. As to conditions: 0.5 μM test compound, NADPH, 0-30 min, scaled to g liver. Summed up:
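Compound incubated at 37° C with microsomes diluted to 0.55 mg/mL protein in 50 mM potassium phosphate pH 7.4 plus NADPH regenerating system; sampled 0–30 min and analysed by LC-MS/MS. Clint from ln(% parent remaining) slope, scaled to mL/min/g liver; Eh derived assuming 25.7 g/kg liver, 20.7 mL/min/kg blood flow.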

In data set [2] the target is T1, NK1 Receptor (Homo sapiens, UniProt P25103).
T1 construct: Measurement of NK1 Receptor Mediated Intracellular [Ca^2+]; Mobilization in U251 MG Cells Using FLIPR; endogenous in cells; host or cells: U251 MG cells
T1 sequence (P25103 whole entry): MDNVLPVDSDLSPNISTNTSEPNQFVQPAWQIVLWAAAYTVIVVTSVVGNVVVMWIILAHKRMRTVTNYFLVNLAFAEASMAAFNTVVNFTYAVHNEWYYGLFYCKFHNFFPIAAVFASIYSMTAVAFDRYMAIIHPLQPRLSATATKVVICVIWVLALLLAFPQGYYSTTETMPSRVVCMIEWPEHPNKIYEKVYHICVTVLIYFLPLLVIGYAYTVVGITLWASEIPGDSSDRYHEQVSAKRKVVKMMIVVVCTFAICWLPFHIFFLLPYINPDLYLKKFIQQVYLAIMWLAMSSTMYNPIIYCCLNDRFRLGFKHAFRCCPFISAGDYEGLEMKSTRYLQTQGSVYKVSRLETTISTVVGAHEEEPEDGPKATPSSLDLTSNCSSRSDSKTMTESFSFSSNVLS
Nature of the data set: NK1 receptor mediated intracellular [Ca2+] mobilization in U251 MG cells using FLIPR. As to conditions: antagonism of Substance P (EC80), Fluo-4, read-out: NK1R mediated intracellular [Ca^2+] mobilization IC 50. The format is cell-based. A digest of the protocol:
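Fluo-4-loaded U251 MG cells preincubated with compound (0.5% DMSO final), checked 5 min for agonism, then 10 min at 37 °C before Substance P at EC80. Peak fluorescence change on FLIPR, normalized to 100 nM Aprepitant maximal response; IC50 by four-parameter logistic fit, reported as pIC50.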

Turning to `C[C@H](c1cc(C(F)(F)F)cc(C(F)(F)F)c1)N(C)C(=O)N1CCN2C(=O)CC[C@H]2[C@@H]1c1ccccc1CO` [Compound 74, (1S,8aS)—N—((R)-1-(3,5-bis(trifluoromethyl)phenyl)ethyl)-1-(2-(hydroxymethyl)phenyl)-N-methyl-6-oxohexahydropyrrolo[1,2-a]pyrazine-2(1H)-carboxamide], the “Human in vitro Clint” value in data set [1] was greater than 200 mL/min/g. Also, the IC50 in data set [2] came out at 0.11 nM.

In the case of `Cc1csc([C@H]2[C@@H]3CCC(=O)N3CCN2C(=O)N(C)[C@H](C)c2cc(C(F)(F)F)cc(C(F)(F)F)c2)c1C` [Compound 75, (1R,8aS)—N—((R)-1-(3,5-bis(trifluoromethyl)phenyl)ethyl)-1-(3,4-dimethylthiophen-2-yl)-N-methyl-6-oxohexahydropyrrolo[1,2-a]pyrazine-2(1H)-carboxamide], the “Human in vitro Clint” value in data set [1] is greater than 200 mL/min/g. Moreover, the IC50 in data set [2] stood at 0.34 nM.

With `CCc1cc([C@@H](C)N(C)C(=O)N2CCN3C(=O)CC[C@H]3[C@@H]2c2scc(C)c2C)cc(C(F)(F)F)c1` [Compound 76, (1R,8aS)-1-(3,4-dimethylthiophen-2-yl)-N—((R)-1-(3-ethyl-5-(trifluoromethyl)phenyl)ethyl)-N-methyl-6-oxohexahydropyrrolo[1,2-a]pyrazine-2(1H)-carboxamide], in data set [1], the “Human in vitro Clint” value was greater than 200 mL/min/g. Further, the IC50 in data set [2] was determined as 0.26 nM.

As to `COc1cccc([C@H]2[C@@H]3CCC(=O)N3CCN2C(=O)N(C)[C@H](C)c2cc(C(F)(F)F)cc(C(F)(F)F)c2)c1C` [Compound 77, (1S,8aS)—N—((R)-1-(3,5-bis(trifluoromethyl)phenyl)ethyl)-1-(3-methoxy-2-methylphenyl)-N-methyl-6-oxohexahydropyrrolo[1,2-a]pyrazine-2(1H)-carboxamide], the “Human in vitro Clint” value in data set [1] was greater than 200 mL/min/g. Moreover, in data set [2], the IC50 amounted to 0.52 nM.

With `COc1cccc([C@H]2[C@@H]3CCC(=O)N3CCN2C(=O)N(C)[C@H](C)c2cc(C(C)C)cc(C(F)(F)F)c2)c1C` [Compound 78, (1S,8aS)—N—((R)-1-(3-isopropyl-5-(trifluoromethyl)phenyl)ethyl)-1-(3-methoxy-2-methylphenyl)-N-methyl-6-oxohexahydropyrrolo[1,2-a]pyrazine-2(1H)-carboxamide], in data set [1], the “Human in vitro Clint” value was greater than 200 mL/min/g. In data set [2], the IC50 was determined as 1.86 nM.

In the case of `C[C@H](c1cc(C(F)(F)F)cc(C(F)(F)F)c1)N(C)C(=O)N1CCN2C(=O)CC[C@H]2[C@@H]1c1cccc2c1CCC2` [Compound 79, (1S,8aS)—N—((R)-1-(3,5-bis(trifluoromethyl)phenyl)ethyl)-1-(2,3-dihydro-1H-inden-4-yl)-N-methyl-6-oxohexahydropyrrolo[1,2-a]pyrazine-2(1H)-carboxamide], the “Human in vitro Clint” value in data set [1] was greater than 200 mL/min/g. In data set [2], the IC50 stood at 2.57 nM.

With `CCc1cc([C@@H](C)N(C)C(=O)N2CCN3C(=O)CC[C@H]3[C@@H]2c2cccc3c2CCC3)cc(C(F)(F)F)c1` [Compound 80, (1S,8aS)-1-(2,3-dihydro-1H-inden-4-yl)-N—((R)-1-(3-ethyl-5-(trifluoromethyl)phenyl)ethyl)-N-methyl-6-oxohexahydropyrrolo[1,2-a]pyrazine-2(1H)-carboxamide], in data set [1], the “Human in vitro Clint” value was greater than 200 mL/min/g. Also, in data set [2], the IC50 stood at 0.79 nM.

Turning to `CC(C)c1cc([C@@H](C)N(C)C(=O)N2CCN3C(=O)CC[C@H]3[C@@H]2c2cccc3c2CCC3)cc(C(F)(F)F)c1` [Compound 81, (1S,8aS)-1-(2,3-dihydro-1H-inden-4-yl)-N—((R)-1-(3-isopropyl-5-(trifluoromethyl)phenyl)ethyl)-N-methyl-6-oxohexahydropyrrolo[1,2-a]pyrazine-2(1H)-carboxamide], the “Human in vitro Clint” value in data set [1] was greater than 200 mL/min/g. Further, in data set [2], the IC50 was 3.5 nM.

As to `Cc1cccc(F)c1[C@H]1[C@@H]2CCC(=O)N2CCN1C(=O)N(C)[C@H](C)c1cc(C(F)(F)F)cc(C(F)(F)F)c1` [Compound 82, (1S,8aS)—N—((R)-1-(3,5-bis(trifluoromethyl)phenyl)ethyl)-1-(2-fluoro-6-methylphenyl)-N-methyl-6-oxohexahydropyrrolo[1,2-a]pyrazine-2(1H)-carboxamide], in data set [1], the “Human in vitro Clint” value is greater than 200 mL/min/g. For the same compound, the IC50 in data set [2] came out at 0.13 nM.

As for `C[C@H](c1cc(C(F)(F)F)cc(C(F)(F)F)c1)N(C)C(=O)N1CCN2C(=O)CC[C@H]2[C@@H]1c1ccc(F)cc1` [Compound 85, (1S,8aS)—N—((R)-1-(3,5-bis(trifluoromethyl)phenyl)ethyl)-1-(4-fluorophenyl)-N-methyl-6-oxohexahydropyrrolo[1,2-a]pyrazine-2(1H)-carboxamide], the “Human in vitro Clint” value in data set [1] is greater than 200 mL/min/g. Besides, the IC50 in data set [2] amounted to 100 nM.

The values above are taken from patent publication US20160207930A1 (LEO PHARMA A/S, priority 2013, published 2016).
